Measured values: PubChem BioAssay AID1508591

conditions: rat; liver microsomes; pH 7.4; 15.0 min; 1.0 µM

Going from `O=C1CCCC2=C1C(c1ccncc1Br)N=C(Nc1nc3ccccc3o1)N2` (stereo not drawn) to `O=C1CCCC2=C1C(c1ccccc1C(F)(F)F)N=C(Nc1nc3ccccc3o1)N2` (stereo not drawn), the half-life rises from 6.5 min to 10 min (1.5-fold).

Compared with `Cc1cccc(-n2cnc3cc(C(=O)N4CCCC(C)C4)ccc32)c1` (stereo not drawn), `O=C(c1ccc2c(c1)ncn2-c1ccccc1)N1CCCCC1` is 6.4-fold higher in half-life: 2.5 min for the first, 16 min for the second.

Going from `CC(=O)c1c(C)[nH]c(C(=O)Nc2ccc(OCCCN(C)C)c(S(=O)(=O)Nc3ccc(Br)cc3)c2)c1C` to `COc1ccc(NC(=O)c2c(C)c(C(C)=O)c(C)n2C)cc1S(=O)(=O)Nc1ccc(Br)cc1`, the half-life falls from greater than 30 min to 5.9 min.

Compared with `Cc1nsc(N)c1C(=O)N(C)CCOc1ccccc1Cl`, `CCOc1ccc(CCN(C)C(=O)c2cc3sccc3n2Cc2ccccc2)cc1OCC` is 2.2-fold lower in half-life: 3.7 min for the first, 1.7 min for the second.

First: Cc1ccc(NC2=C(c3ccc(C(F)(F)F)cc3)C(=O)c3ccccc32)cc1F
Second: O=C(Nc1ncc(Cc2ccc(C(F)(F)F)cc2)s1)c1cccc(-c2ccccc2)c1
The half-life of the first is lower: 8.96 min for the first, greater than 30 min for the second.

Going from `Cc1ccc(NC(=O)N2CCN(c3nc(N)nc4sc(-c5cccnc5)nc34)CC2)cc1` to `Cc1ccnc(NC(=S)N2CCN(c3ccc(N)cc3)CC2)c1`, the half-life rises from 17.1 min to greater than 30 min.

Compared with `CCCCC1CCC(C(=O)Nc2ccc(S(=O)(=O)Nc3nccs3)cc2)CC1` (stereo not drawn), `Cc1cccc(CNc2ccc(S(=O)(=O)Nc3nccs3)cc2)c1O` is lower in half-life: greater than 30 min for the first, 21 min for the second.

Compared with `CN(C)c1ccccc1-c1csc(N2CCC(C(N)=O)CC2)n1`, `CC(=O)NC1CCN(c2nc(-c3ccc(Br)cc3)cs2)CC1` is higher in half-life: 9.95 min for the first, greater than 30 min for the second.

Compared with `O=C(NCCCn1ccnc1)c1nc(-c2ccccc2)cc2[nH]ccc12`, `Cc1ccc(-c2cc(C(=O)NCc3ccc(S(N)(=O)=O)cc3)c3ccccc3n2)cc1C` is lower in half-life: greater than 30 min for the first, 17 min for the second.

Compared with `Oc1cccc(-c2nc(N3CCOCC3)c3oc4ncccc4c3n2)c1`, `O=C(NC1CCCc2c1cnn2-c1cccc(O)c1)c1ccccn1` (stereo not drawn) is 1.8-fold lower in half-life: 21.8 min for the first, 11.9 min for the second.

First: NC(=O)C1CCN(c2cc(-c3ccc4c(c3)OCCCO4)ncn2)CC1
Second: CC1CCN(C(=O)c2ccc(-c3ccc(N4CCSCC4)nc3)cc2)CC1
The half-life of the first is higher: greater than 30 min for the first, 1.52 min for the second.

Compared with `Cc1ccccc1C(=O)Nc1ccc2c(c1)CCCN2C(=O)c1cccs1`, `Cc1cccc(C)c1C(=O)Nc1cccc([S+](=O)([O-])N2CCCCCC2)c1` is 4.9-fold lower in half-life: 7.79 min for the first, 1.6 min for the second.

Going from `Cc1ccc(S(=O)(=O)Nc2ccc(C(=O)Nc3ncc(-c4ccccc4)s3)cc2)cc1` to `COc1cccc(NS(=O)(=O)c2ccc(C)cc2)c1C(=O)Nc1nc(-c2ccccc2)cs1`, the half-life falls from 11 min to 3.7 min (3-fold).

Compared with `CCN1C(=O)c2ccccc2S(=O)c2ccc(C(=O)NCc3ccccc3)cc21` (stereo not drawn), `O=C(O)CNC(=O)c1c(O)c2ccccc2n(Cc2ccccc2)c1=O` is 2.9-fold higher in half-life: 8.12 min for the first, 23.6 min for the second.

First: CCn1cc(CNC(=O)c2cc(-c3ccc(C)cc3)nc3ccc(Br)cc23)c(C)n1
Second: Cc1noc(C)c1-c1ccc2ncnc(NCc3ccc4[nH]ccc4c3)c2c1
The half-life of the first is 3.4-fold higher: 10.9 min for the first, 3.2 min for the second.

`O=C(Nc1ccc(OC(F)(F)F)cc1)c1sccc1NCc1ccnc2ccccc12` and `COc1ccc(Nc2ncc(C(=O)Nc3cccc(Cl)c3)c3ccccc23)cc1` are within 1.5-fold of each other in half-life: 18.7 min for the first, 16.5 min for the second.

Going from `O=C(c1nc(-c2ccc(Cl)nc2)c2ccccn12)N1CCCC1` to `O=C(O)c1ccnc2cc(-c3nc4ccccc4n3CCN3CCCCC3)sc12`, the half-life rises from 8.91 min to greater than 30 min.

Compared with `N=c1c2c(ncn1-c1ccccc1)Oc1ccc3ccccc3c1C2c1ccc2c(c1)CCO2` (stereo not drawn), `O=S(=O)(c1ccc2ccccc2c1)N1CCN(c2nc(-c3cccs3)nc3ccccc23)CC1` is 4.3-fold lower in half-life: 10.1 min for the first, 2.34 min for the second.

Going from `Cc1ccc(-c2nc(C)c(C(=O)Nc3ccc4c(c3)C(=O)N3CCC[C@H]3C(=O)N4)s2)cc1` to `COc1ccc(-c2csc(NC(=O)c3ccccc3NS(=O)(=O)c3ccc(C)cc3)n2)cc1`, the half-life falls from 27.2 min to 2.34 min (12-fold).

Compared with `COc1ccc(NC(=O)c2cccnc2C)cc1S(=O)(=O)Nc1ccc(Br)cc1`, `COc1ccc(O)c(CNc2ccc(S(=O)(=O)Nc3nccs3)cc2)c1` is higher in half-life: 11 min for the first, greater than 30 min for the second.

Going from `O=C(O)c1ccc(-c2c[nH]c3ncc(-c4ccccc4)cc23)cc1C1CCCC1` to `Cc1cnc(-c2ccccc2C2CC2)nc1NCc1ccc(-c2cccnc2)cc1`, the half-life falls from greater than 30 min to 6.2 min.

Going from `COc1ccc(-n2c(C)c(C(C)=O)c3ccccc32)cc1` to `COc1ccc(-n2c(C)c(C(C)=O)c3cc(OC(=O)COc4ccccc4)ccc32)cc1`, the half-life rises from 2.4 min to 10.4 min (4.3-fold).

Going from `CCC(CC)c1cc([C@H]2CN3CC[C@H]2C[C@@H]3CNS(=O)(=O)c2cccs2)nc(-c2ccncc2)n1` to `COc1cccc(CN2CCCC(c3nc(-c4ccncc4)ncc3-c3ccccc3)C2)c1O` (stereo not drawn), the half-life falls from greater than 30 min to 5.95 min.

First: Cn1nnnc1Sc1ncnc2scc(-c3ccccc3F)c12
Second: COc1oc(-c2cccc3ccccc23)nc1C(=O)O
The half-life of the first is lower: 5.28 min for the first, greater than 30 min for the second.

First: COc1cncc(Nc2ncc(-c3cccc(N(C)C)c3)c3c2OCC3)c1
Second: CN(C)c1cccc(-c2cnc(Nc3cccnc3)c3c2CCO3)c1
The half-life of the first is 2.2-fold higher: 11.7 min for the first, 5.25 min for the second.

Compared with `Nc1cc(CN2C(=O)c3ccccc3C2=O)cc(Cl)c1O`, `Cc1cc(N=Nc2ccc(S(=O)(=O)Nc3ccccn3)cc2)c(N)cc1O` is higher in half-life: 11.7 min for the first, greater than 30 min for the second.

`CN(C)C(=O)NC1CCC(CCN2CCN(c3cccc(Cl)c3Cl)CC2)CC1` (stereo not drawn) and `CC[C@@H]1C(=O)N(C)c2cnc(Nc3ccc(C(=O)NC4CCN(C)CC4)cc3OC)nc2N1C1CCCC1` cannot be ordered by half-life: greater than 30 min for the first, greater than 30 min for the second.

`CCOc1ccc(CCNC(=O)c2cc3sccc3n2Cc2ccc(F)cc2F)cc1OCC` and `CCOc1ccc(CCNC(=O)c2ccc(Oc3ccccc3)cc2)cc1OCC` are within 1.5-fold of each other in half-life: 1.8 min for the first, 1.9 min for the second.

Going from `O=C(Oc1ccc[nH]c1=O)c1cc([N+](=O)[O-])cc([N+](=O)[O-])c1` to `CCC(=O)NC(c1cccs1)c1cc([N+](=O)[O-])c2cccnc2c1O` (stereo not drawn), the half-life rises from 1.46 min to greater than 30 min.

`CC(C)(O)CNc1nc(Nc2ccnc(C(F)(F)F)c2)nc(-c2cccc(C(F)(F)F)n2)n1` and `Cc1cn(-c2cc(NC(=O)c3ccc(C)c(Nc4nccc(-c5cccnc5)n4)c3)cc(C(F)(F)F)c2)cn1` cannot be ordered by half-life: greater than 30 min for the first, greater than 30 min for the second.

First: CCC(Sc1nc2ccccc2c2nc(CCc3c(C)n[nH]c3C)nn12)C(=O)Nc1ccc(F)cc1 (stereo not drawn)
Second: N#Cc1cnccc1-c1nc(Nc2ccc(F)c(F)c2)c2ccccc2n1
The half-life of the first is 1.6-fold lower: 4.01 min for the first, 6.4 min for the second.

`Cc1cc(C)nc(NC(=S)N2CCN(Cc3ccc(C(F)(F)F)cc3)CC2)c1` and `Cc1ccnc(NC(=S)N2CCN(c3ccc(C(F)(F)F)cc3)CC2)c1` cannot be ordered by half-life: greater than 30 min for the first, greater than 30 min for the second.

Going from `CCN(CC)S(=O)(=O)c1ccc2oc(C(=O)Nc3ccc(Br)cc3F)c(C)c2c1` to `Cc1cc(N[S+](=O)([O-])c2ccc(NC(=O)Cc3ccc(F)c(F)c3)cc2)no1`, the half-life rises from 7.91 min to greater than 30 min.

Going from `N#Cc1ccc(NS(=O)(=O)c2ccc(NC(=O)Cc3ccc(F)c(Cl)c3)cc2)cc1` to `O=C(Nc1cccc(C(F)(F)F)c1)C1=CCN(Cc2ccc(F)cc2)CC1`, the half-life falls from greater than 30 min to 3.4 min.

`O=C1CCCC2=C1C(c1[nH]ncc1Cl)N=C(Nc1nc3cc([S+](=O)([O-])N4CCOCC4)ccc3o1)N2` (stereo not drawn) and `Cc1cc(C)c(C(=O)Nc2cccc([S+](=O)([O-])N3CCCC3)c2)[nH]1` are within 1.5-fold of each other in half-life: 9.4 min for the first, 6.5 min for the second.

Going from `Cc1ccc2c(c1)N(S(=O)(=O)c1cc(-c3onc(C)c3C)ccc1C)CCO2` to `COc1cccc(C(=O)Nc2nc(-c3nnn(-c4cc(C)ccc4C)c3C)ns2)c1`, the half-life rises from 1.56 min to 17.6 min (11-fold).

Compared with `Cc1nnn(C)c1-c1cnc2c3ccc(C(C)(C)O)cc3n([C@H](c3ccccc3)C3CCOCC3)c2c1`, `Cc1cc(NC(=S)N2CCN(c3cccc(C(F)(F)F)c3)CC2)nc2ccccc12` is lower in half-life: greater than 30 min for the first, 26 min for the second.

First: O=C1/C(=C\c2ccccc2)C[C@@]2(O)C3Cc4ccc(O)c5c4[C@@]2(CCN3CC2CC2)[C@H]1O5
Second: Cc1cccc([C@H]2[C@@H]3C=CC[C@@H](C)[C@@H]3C(=O)N2Cc2ccccc2)c1
The half-life of the first is 2.4-fold higher: 3.37 min for the first, 1.4 min for the second.

Going from `Cn1cc(S(=O)(=O)N2CCCCCC2)cc1C(=O)Nc1ccc(Cl)c(C(F)(F)F)c1` to `Cc1ccc(NS(=O)(=O)c2cccc(C(=O)O)c2)cc1S(=O)(=O)N1CCOCC1`, the half-life rises from 5.98 min to greater than 30 min.

First: COc1cccc(-c2nc(-c3c(C)noc3C)cc3[nH]c(C)cc23)c1OC
Second: COc1ccccc1-c1cc2c(ccn2C)c(C(=O)NCC2CCN(C)C(=O)C2)n1 (stereo not drawn)
The half-life of the first is lower: 10.2 min for the first, greater than 30 min for the second.

Compared with `O=C1Nc2ccccc2/C1=C/c1ccnc2ccccc12`, `N#Cc1nc(-c2cccc3ccccc23)oc1Nc1ccccc1` is higher in half-life: 4.5 min for the first, greater than 30 min for the second.

Compared with `O=C(NCc1ccncc1)c1nc(-c2cccnc2)c2cnccn12`, `CCc1ccc(NC(=O)c2cc3ncccn3n2)cc1` is lower in half-life: greater than 30 min for the first, 2.8 min for the second.

Going from `NC[C@H](O)c1ccc(O)c(O)c1` to `CC(C)CNC(=O)c1cn2cc(-c3ccccc3)sc2n1`, the half-life rises from 13.4 min to greater than 30 min.

Compared with `O=C1CCCC2=C1C(C1CCCCC1Cl)N=C(NC1NC3CCCCC3S1)N2` (stereo not drawn), `Oc1ccc(-c2nc(C3CC3)nc3c2CCN(CC2CCCCC2)CC3)cc1` is 2.1-fold lower in half-life: 10.9 min for the first, 5.28 min for the second.

First: Cc1ccnc(NC(=S)N2CCN(c3ccc(Cl)cc3Cl)CC2)c1
Second: Cc1ccc(S(=O)(=O)Nc2ccccc2N2CCCCC2)cc1
The half-life of the first is higher: greater than 30 min for the first, 1.69 min for the second.

`N=c1c2c(n(Cc3ccccc3)c3c1CCC3)CCC2` and `Cc1cc2ccccc2n1CC(=O)NC1CCCCC1` are within 1.5-fold of each other in half-life: 4.04 min for the first, 2.8 min for the second.

Compared with `COC(C)(C)CCn1nc(Nc2c(C)cccc2C)c2cnc(Nc3ccc(OCCN4CCCC4)c(F)c3)nc21`, `Cc1cn(CCN2CCN(c3ccccc3-c3cc(C#N)cc(C(=O)NCCCN4CCCC4)c3)CC2)c2ccccc12` is higher in half-life: 3.28 min for the first, greater than 30 min for the second.

Going from `CCCNC(=O)c1ccc2c(c1)ncn2-c1cc(C)cc(C)c1` to `Cc1ncc2c(c1CNC(=O)Cn1cnc3ccccc3c1=O)CCNC2`, the half-life rises from 17 min to greater than 30 min.

Compared with `Cc1noc([C@@H]2CN(C(=O)c3nn(C)c4ccccc34)C[C@H]2CO)n1`, `CCCN1C(CC(C)C)=NS(=O)(=O)c2cc(NC(=O)c3ccco3)ccc21` is lower in half-life: greater than 30 min for the first, 9.21 min for the second.

Going from `COc1cccc(CNc2ccc([S+](=O)([O-])Nc3cc4ccccc4s3)cc2)c1O` to `COc1cccc(C(=O)Nc2ccc3oc(-c4ccc5ccccc5c4)nc3c2)c1`, the half-life rises from 3.5 min to 27.9 min (8-fold).

Going from `CC1=C[C@@H](CNC(C)C)[C@H](C(C)C)C[C@H]1Cc1nnc(-c2ccncc2)o1` to `COc1ccc(-n2nc(C)c([C@@H]3C=C[C@@H](NCc4ccc(N(C)C)cc4)C3)c2C)cc1`, the half-life falls from 4.76 min to 2.69 min (1.8-fold).

Work on `C#C[C@]1(OC(C)=O)CC[C@H]2[C@@H]3CCC4=C/C(=N/O)CC[C@@H]4[C@H]3CC[C@@]21CC` yielded a half-life of 3.98 min.
